Patent US20210246019A1, “PEPTIDE/LIPID-ASSOCIATED NUCLEIC ACIDS (PLANA) FOR NUCLEIC ACID DELIVERY” (priority 2020, published 2021)

Tested on: hCoV-229E
Test: microbe, parasite or virus in culture
Conditions: Human coronavirus 229E, MRC5, read-out: cell viability

## CCC(CC)COC(=O)[C@H](C)N[P@](=O)(OC[C@H]1O[C@@](C#N)(c2ccc3c(N)ncnn23)[C@H](O)[C@@H]1O)Oc1ccccc1 [remdesivir]
  viability at 5 µM: 92%
